This passage reports IC50 and IC90 results from ChEMBL document CHEMBL4483862, “Open-source discovery of chemical leads for next-generation chemoprotective antimalarials” (2018).

This assay has as its system Plasmodium berghei. Description: Luciferase/luciferin-expressing antifolate-resistant parasites were used to infect a culture of HepG2 cells that were pre-incubated with compounds. Infected hepatocytes emit light due to the luciferase reaction. Assay results are presented as the percent inhibition of light emission compared to control. […]. In kind it is functional. To be noted: sporozoite; for IC90: read-out: LUCIFERASE INFECTION ASSAY - IC90.

Structures are written as SMILES.

By IC50 is commonly meant the concentration at which inhibition is half-maximal. A word on the IC90: it is the point of the concentration-response curve where the effect stands at 90%. `O=[N+]([O-])c1cc(/C=N/O)ccc1Sc1ccccc1`: the IC90 was more than 12 µM. Moreover, the IC50 (PBLUC_HILL_SLOPE 15.1, PBLUC_R_SQUARED 0.212, read-out: LUCIFERASE INFECTION ASSAY - IC50) was more than 12 µM.

Consider `C/N=c1\scc(-c2ccccc2Br)n1/N=C/c1ccc[nH]1`, for which the IC90 is more than 10 µM. Moreover, where the note is “PBLUC_HILL_SLOPE 15, PBLUC_R_SQUARED 0.188, read-out: LUCIFERASE INFECTION ASSAY - IC50”, the IC50 stood at 9.68 µM.

With `Clc1ccc(Sc2ncnc3ccsc23)cc1`, the IC90 came out at 9.97 µM. Moreover, the IC50 (PBLUC_HILL_SLOPE 15.3, PBLUC_R_SQUARED 0.133, read-out: LUCIFERASE INFECTION ASSAY - IC50) was determined as 8.63 µM.

As for `CC1=C(C(=O)OC2CCCCC2)C(c2ccccc2Br)CC(=O)N1` (configuration not stated), the IC90 was more than 8.41 µM. Moreover, where the note is “PBLUC_HILL_SLOPE 15.2, PBLUC_R_SQUARED 0.697, read-out: LUCIFERASE INFECTION ASSAY - IC50”, the IC50 was determined as 7.66 µM.

With `CC(C)Oc1cccc(-c2cn3c(-c4ccc(N(C)C)cc4)cnc3cn2)c1`, the IC90 is more than 8.86 µM. For the same compound, the IC50 (PBLUC_HILL_SLOPE 15, PBLUC_R_SQUARED 0.312, read-out: LUCIFERASE INFECTION ASSAY - IC50) is more than 8.86 µM.

For `O=C(NCc1ccc(-c2cccs2)s1)c1ccc([N+](=O)[O-])s1`, the IC90 was more than 9.42 µM. The IC50 (PBLUC_HILL_SLOPE 15, PBLUC_R_SQUARED 0.438, read-out: LUCIFERASE INFECTION ASSAY - IC50) was 8.73 µM.

For the compound `O=C(CSc1nnc(C2CC2)o1)NCCC1=CCCCC1`, the IC90 is 3.33 µM. Further, the IC50 (PBLUC_HILL_SLOPE 15.1, PBLUC_R_SQUARED 0.587, read-out: LUCIFERASE INFECTION ASSAY - IC50) is 2.88 µM.

Regarding `Cc1ccc2cc(Cn3cc(Br)ccc3=O)c(Cl)nc2c1C`, the IC90 stood at 3.58 µM. Besides, the IC50 (PBLUC_HILL_SLOPE 15.2, PBLUC_R_SQUARED 0.445, read-out: LUCIFERASE INFECTION ASSAY - IC50) stood at 3.1 µM.

As to `O=C(Nc1ccc(OC(F)(F)F)cc1)Nc1ccccc1SCC(O)Cn1ccc(C(F)(F)F)n1` (configuration not stated), the 90% effect concentration (IC90) is more than 6.34 µM. Where the note is “PBLUC_HILL_SLOPE 15.1, PBLUC_R_SQUARED 0.225, read-out: LUCIFERASE INFECTION ASSAY - IC50”, the concentration for half-maximal inhibition (IC50) is 5.88 µM.

As to `Cc1cc(C2=NN/C(=N\C(C)(C)C)SC2)c(C)n1C(C)C`, the 90% effect concentration (IC90) was more than 10 µM. For the same compound, the half-inhibitory concentration (IC50) (PBLUC_HILL_SLOPE 15.1, PBLUC_R_SQUARED 0.242, read-out: LUCIFERASE INFECTION ASSAY - IC50) amounted to 9.12 µM.

Turning to `O=C1c2ccccc2O[C@@H](c2ccc([N+](=O)[O-])cc2)[C@@H]1O`, the IC90 was more than 11.6 µM. For the same compound, the IC50 (PBLUC_HILL_SLOPE 15.1, PBLUC_R_SQUARED 0.277, read-out: LUCIFERASE INFECTION ASSAY - IC50) was 10.8 µM.

Turning to `O=C(NNc1ccc(F)cc1)c1cccc(S(=O)(=O)N2CCc3ccccc3C2)c1`, the IC90 is more than 10 µM. Also, where the note is “PBLUC_HILL_SLOPE 14.9, PBLUC_R_SQUARED 0.744, read-out: LUCIFERASE INFECTION ASSAY - IC50”, the IC50 is 9.22 µM.

For `COc1ccc(-c2nc(NC(=O)CCc3ccc4c(c3)OCO4)sc2C)cc1`, the concentration for an effect of 90% (IC90) was more than 10 µM. Under “PBLUC_HILL_SLOPE 15.2, PBLUC_R_SQUARED 0.468, read-out: LUCIFERASE INFECTION ASSAY - IC50”, the concentration for half-maximal inhibition (IC50) came out at 8.95 µM.

For the compound `CCN1C(=O)N(Cc2cccc(OC)c2)C(=O)C12CCN(CC(c1ccccc1)c1ccccc1)CC2`, the 90% effect concentration (IC90) is more than 6.63 µM. Also, the IC50 (PBLUC_HILL_SLOPE 15.1, PBLUC_R_SQUARED 0.228, read-out: LUCIFERASE INFECTION ASSAY - IC50) came to 6.16 µM.

Regarding `O=C(NCc1ccccn1)c1nn(CCc2ccccc2)c2c1CN(Cc1ccc(F)cc1)CC2`, the IC90 was more than 7.03 µM. The IC50 (PBLUC_HILL_SLOPE 15.1, PBLUC_R_SQUARED 0.777, read-out: LUCIFERASE INFECTION ASSAY - IC50) was 6.49 µM.

For the compound `O=C(Nc1nc(-c2ccccn2)cs1)c1ccc(=O)n(Cc2ccccc2)n1`, the IC90 was 9.95 µM. Further, the IC50 (PBLUC_HILL_SLOPE 15.2, PBLUC_R_SQUARED 0.0748, read-out: LUCIFERASE INFECTION ASSAY - IC50) amounted to 8.61 µM.

In the case of `COc1ccc(C(=O)C2CCN(C(=O)C3CC(=O)N(c4ccc(C)c(F)c4)C3)CC2)cc1` (configuration not stated), the IC90 is more than 10 µM. Moreover, the half-maximal inhibitory concentration (IC50) (PBLUC_HILL_SLOPE 15.1, PBLUC_R_SQUARED 0.128, read-out: LUCIFERASE INFECTION ASSAY - IC50) came to 9.94 µM.

Consider `Cc1noc(C)c1-c1nccc2n[nH]c(-c3ccccc3)c12`, for which the IC90 was more than 10 µM. Besides, the IC50 (PBLUC_HILL_SLOPE 15.1, PBLUC_R_SQUARED 0.272, read-out: LUCIFERASE INFECTION ASSAY - IC50) came to 9.26 µM.

With `Cc1ccc(C)c(N2C(=O)C=CC2=O)c1`, the 90% effect concentration (IC90) was more than 16.4 µM. For the setting “PBLUC_HILL_SLOPE 15.1, PBLUC_R_SQUARED 0.421, read-out: LUCIFERASE INFECTION ASSAY - IC50”, the IC50 worked out at 14.8 µM.

On to `O=C(c1cccc(F)c1)c1cnc(Nc2cccc(Br)c2)[nH]1`, for which the IC90 is more than 9.16 µM. The IC50 (PBLUC_HILL_SLOPE 15, PBLUC_R_SQUARED 0.325, read-out: LUCIFERASE INFECTION ASSAY - IC50) was 8.58 µM.

As for `CCNC(=O)c1nn(Cc2ccccc2)c2c1CC(NCc1ccc(Cl)s1)CC2` (configuration not stated), the IC90 is more than 7.69 µM. Also, the IC50 (PBLUC_HILL_SLOPE 15.3, PBLUC_R_SQUARED 0.172, read-out: LUCIFERASE INFECTION ASSAY - IC50) is 7.58 µM.

With `CC(OC(=O)c1cc2sc3ccccc3c2s1)C(=O)N1CCNC1=O` (configuration not stated), the IC90 worked out at 9.91 µM. Moreover, the IC50 (PBLUC_HILL_SLOPE 15.1, PBLUC_R_SQUARED 0.0385, read-out: LUCIFERASE INFECTION ASSAY - IC50) came out at 8.57 µM.

Turning to `COc1ccc2[nH]cc(C(=O)CN3CCC(Cc4ccccc4)CC3)c2c1`, the IC90 was more than 9.1 µM. For the same compound, the IC50 (PBLUC_HILL_SLOPE 15.2, PBLUC_R_SQUARED 0.148, read-out: LUCIFERASE INFECTION ASSAY - IC50) worked out at 8.48 µM.

On to `CC(C)(C)C(=O)c1sc2c(c1N)c(=O)[nH]c(=O)n2C1CCCCC1`, for which the IC90 was determined as 3.47 µM. Further, the IC50 (PBLUC_HILL_SLOPE 15.3, PBLUC_R_SQUARED 0.0878, read-out: LUCIFERASE INFECTION ASSAY - IC50) amounted to 3.01 µM.

`COc1ccc(CCC2CCN(C(=O)c3cc(S(N)(=O)=O)c(Cl)cc3Cl)CC2)cc1`: the IC90 is more than 10 µM. Moreover, the IC50 (PBLUC_HILL_SLOPE 15.3, 12.1, PBLUC_R_SQUARED 0.180, 0.0239, read-out: LUCIFERASE INFECTION ASSAY - IC50) amounted to 9.53 µM.

`O=C(CSCc1nc2ccccc2[nH]1)Nc1nc(-c2ccc(NC(=O)c3ccccc3)cc2)cs1`: the IC90 was more than 10 µM. Under “PBLUC_HILL_SLOPE 14.9, PBLUC_R_SQUARED 0.81, read-out: LUCIFERASE INFECTION ASSAY - IC50”, the IC50 worked out at 9.28 µM.

Take `CC(=O)Nc1cccc(-c2cn3c(-c4ccc(C#N)cc4)cnc3cn2)c1`: the concentration for an effect of 90% (IC90) was more than 9.34 µM. In addition, for the setting “PBLUC_HILL_SLOPE 15, PBLUC_R_SQUARED 0.251, read-out: LUCIFERASE INFECTION ASSAY - IC50”, the IC50 turned out to be 8.2 µM.

Turning to `Cc1cc2ncc(C(=O)Nc3nc4c(s3)CN(Cc3ccccc3)CC4)c(C)n2n1`, the IC90 was more than 10 µM. Further, where the note is “PBLUC_HILL_SLOPE 15, PBLUC_R_SQUARED 0.627, read-out: LUCIFERASE INFECTION ASSAY - IC50”, the IC50 is 9.24 µM.

Regarding `CN(C)c1cccc(-c2cnc3sc(NCc4ccccc4)nn23)c1`, the IC90 was 3.57 µM. In addition, the IC50 (PBLUC_HILL_SLOPE 15, PBLUC_R_SQUARED 0.389, read-out: LUCIFERASE INFECTION ASSAY - IC50) came to 3.08 µM.

On to `CC(=O)Nc1nc(C(=O)Nc2ccc3c(c2)OC(F)(F)O3)cs1`, for which the IC90 is more than 10 µM. The IC50 (PBLUC_HILL_SLOPE 15.0, 3.17, PBLUC_R_SQUARED 0.232, 0.795, read-out: LUCIFERASE INFECTION ASSAY - IC50) stood at 7.96 µM.

As to `CN1CCN(/N=C/c2c(-c3ccccc3)n(-c3ccccc3)c3ccccc23)CC1`, the concentration for an effect of 90% (IC90) was more than 10 µM. In addition, the concentration for half-maximal inhibition (IC50) (PBLUC_HILL_SLOPE 15.1, PBLUC_R_SQUARED 0.218, read-out: LUCIFERASE INFECTION ASSAY - IC50) was 9.13 µM.

For `CNc1snc(C)c1C(=O)Nc1ccc2oc(C(C)C)nc2c1`, the IC90 worked out at 3.56 µM. In addition, the IC50 (PBLUC_HILL_SLOPE 15, PBLUC_R_SQUARED 0.678, read-out: LUCIFERASE INFECTION ASSAY - IC50) was determined as 3.08 µM.

Turning to `CS(=O)(=O)Nc1ccc(-c2csc(NC(=O)c3ccc(CN4CCCCC4)cc3)n2)cc1`, the IC90 is more than 10 µM. Also, where the note is “PBLUC_HILL_SLOPE 15.3, PBLUC_R_SQUARED 0.202, read-out: LUCIFERASE INFECTION ASSAY - IC50”, the IC50 turned out to be 9.15 µM.

As to `Cc1ccc(C(=O)Nc2nc3ccccn3c2C(=O)NC(C)C)cc1`, the IC90 is more than 9.81 µM. Further, under “PBLUC_HILL_SLOPE 15.2, PBLUC_R_SQUARED 0.478, read-out: LUCIFERASE INFECTION ASSAY - IC50”, the IC50 was 8.52 µM.

As to `CNc1nc2cnc(-c3cccc(OC(F)(F)F)c3)cc2n1-c1cccc(F)c1`, the IC90 was more than 10 µM. Under “PBLUC_HILL_SLOPE 15.2, PBLUC_R_SQUARED 0.218, read-out: LUCIFERASE INFECTION ASSAY - IC50”, the IC50 turned out to be 9.01 µM.

`CC(C)(C)c1cc2nc(C(F)(F)F)cc(N/N=C/c3ccccc3)n2n1`: the concentration for an effect of 90% (IC90) was more than 9.13 µM. Moreover, the IC50 (PBLUC_HILL_SLOPE 15.2, PBLUC_R_SQUARED 0.244, read-out: LUCIFERASE INFECTION ASSAY - IC50) was determined as 8.24 µM.
